Experiments:
tau aggregates = assay: Autoradiography of tritiated radioligands on human cortical AD brain sections; assay type: binding; settings: Braak V staged AD patient
Protocol: FIG. 1 is an autoradiogram of [^3H]-2-(4-methoxyphenyl)imidazo[1,2-a]pyridin-7-amine (example 5) incubated with human cortical brain sections obtained from a Braak V staged AD patient. The radioligand concentration was 2.6 nM.
FIG. 2 is an autoradiogram of [^3H]-2-[4-(2-fluoroethoxy)phenyl]imidazo[1,2-a]pyridin-7-amine (example 6) incubated with human cortical brain sections obtained from a Braak V staged AD patient. The radioligand concentration was 2.5 nM.
FIGS. 1 and 2 represent autoradiograms of respectively [[^3H]-2-(4-methoxyphenyl)imidazo[1,2-a]pyridin-7-amine (example 5) and [^3H]-2-[4-(2-fluoroethoxy)phenyl]imidazo[1,2-a]pyridin-7-amine (example 6) incubated with human cortical brain sections obtained from a Braak V staged AD patient. The radioligand concentrations were 2.6 and 2.5 nM, respectively.

native tau aggregates = assay: TAU radioligand in vitro displacement assay ([^3H]T808, autoradiography); assay type: binding; settings: human AD brain sections; radioligand [^3H]T808 10 nM; cold compound 10 nM; 50 mM Tris pH 7.4, room temperature, 30 min
Protocol: (§1) FIG. 3 represents data from the TAU radioligand in vitro displacement assay described below. This in vitro binding assay assesses the affinity of compounds for native tau aggregates. The compounds are co-incubated with the well-established tau specific radioligand [^3H]T808 and the compound's displacement potency of [^3H]T808 binding is determined by in vitro autoradiography using human Alzheimer's disease (AD) brain sections.
as §1, with “This” for “FIG. 3 represents data from the TAU radioligand in vitro displacement assay described below. This”, “sections (see FIG. 3).” for “sections.”
AD human brains are purchased from Banner Sun Health Research Institute (Sun City, Ariz., USA). Pathological diagnosis of AD is made according to standard NIA-Reagan Institute criteria based on neuropathological data. The radioligand [^3H]T808 was synthesized in-house ([^3H]-2-[4-(2-Fluoro-ethyl)-piperidin-1-yl]-benzo[4,5]imidazo[1,2-a]pyrimidine, radiochemical purity 99.0%). As a reference cold T808 is used (2-[4-(2-Fluoro-ethyl)-piperidin-1-yl]-benzo[4,5]imidazo[1,2-a]pyrimidine). For the autoradiography FujiFilm Imaging Plates (BAS-IP TR 2025) are exposed to the sections and read with a FujiFilm IP reader (BAS-5000).
Ten μm thick human AD brain sections are generated with a cryostat (Leica CM3050) at −17° C. chamber temperature and −15° C. object temperature. Sections are transferred to Histobond+ microscope slides (Marienfeld Laboratory Glasware). After drying for 3 hours at room temperature the sections are stored at −20° C. The sections are incubated with the radioligand (10 nM) and the respective cold compound (at various concentrations) in 50 mM Tris buffer, pH 7.4 at room temperature for 30 min. After washing 3×10 min at 4° C. in 50 mM Tris buffer, pH 7.4 and 3 quick dips in H2O dist. at 4° C. the sections are dried at 4° C. for 3 h. The sections are placed in a FujiFilm Cassette (BAS 2025), exposed with an Imaging Plate for five days and afterwards scanned with a resolution of […].
The signal intensity (Dens-PSL/mm2) in the region of interest (ROI) of the autoradiogram is quantified with the software MCID analysis (version 7.0, Imaging Research Inc.). The specific binding (SB) of [^3H]T808 binding in absence or in presence of a compound is calculated by subtracting the non-specific binding signal in the white matter, thus yielding SB[3H]T808 only and SBcompound. The % displacement by the various compounds is calculated as following: % displacement=100−(SBcompund/SB[3H]T808 only)*100. Validation Data
In each experiment cold T808 is used as a positive internal control. […]

tau aggregates, sequence (P10636 623-695 limits assumed): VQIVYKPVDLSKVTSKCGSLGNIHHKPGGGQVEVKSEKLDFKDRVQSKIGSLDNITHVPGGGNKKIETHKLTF

Compound | % displacement of [^3H]T808 (10 nM) at 10 nM (native tau aggregates) [%] | other results
[^3H]-2-(4-Methoxyphenyl)imidazo[1,2-a]pyridin-7-amine [Example 5] | – | autoradiogram staining pattern (tau aggregates; radioligand concentration 2.6 nM (FIG. 1)): punctate staining of tau aggregates in a layered distribution pattern and a varying degree of non-specific binding in white matter
Nc1ccn2cc(-c3ccc(OCCCF)cc3)nc2c1 [Example 3, 2-[4-(3-Fluoropropoxy)phenyl]imidazo[1,2-a]pyridin-7-amine] | 25 | –
COc1ccc(-c2cn3ccc(N)cc3n2)cc1 [Example 1, 2-(4-Methoxyphenyl)imidazo[1,2-a]pyridin-7-amine] | 67 | –
[^3H]-2-[4-(2-Fluoroethoxy)phenyl]imidazo[1,2-a]pyridin-7-amine [Example 6] | – | autoradiogram staining pattern (tau aggregates; radioligand concentration 2.5 nM (FIG. 2)): punctate staining of tau aggregates in a layered distribution pattern and a varying degree of non-specific binding in white matter
Nc1ccn2cc(-c3ccc(OCF)cc3)nc2c1 [Example 2, 2-(4-(Fluoromethoxy)phenyl)imidazo[1,2-a]pyridin-7-amine] | 51 | –
Nc1ccn2cc(-c3ccc(OCCF)cc3)nc2c1 [Example 4, 2-[4-(2-Fluoroethoxy)phenyl]imidazo[1,2-a]pyridin-7-amine] | 50 | –

From patent US9957266B2, “Imidazo[1,2-a]pyridin-7-amine” (Hoffmann-La Roche Inc., priority 2013, dated 2018)
